Measurements reported in patent US6500835B2, “Preventive or therapeutic drugs for fibrosis containing chymase inhibitors as the active ingredient” (Suntory Limited, priority 2000, dated 2002).
Structures can show the parent of a compound that is named as a salt.

What was measured:
Human heart chymase = target: T1, Human heart chymase (Homo sapiens, UniProt P23946); assay: Measurement of chymase inhibitory activity (Suc-Ala-Ala-Pro-Phe-MCA substrate); type: biochemical; details: 30° C., 10 min preincubation
T1 construct: Human heart chymase was purified according to the method of Urata et al; from tissue; host or cells: human heart
T1 sequence (P23946 22-247): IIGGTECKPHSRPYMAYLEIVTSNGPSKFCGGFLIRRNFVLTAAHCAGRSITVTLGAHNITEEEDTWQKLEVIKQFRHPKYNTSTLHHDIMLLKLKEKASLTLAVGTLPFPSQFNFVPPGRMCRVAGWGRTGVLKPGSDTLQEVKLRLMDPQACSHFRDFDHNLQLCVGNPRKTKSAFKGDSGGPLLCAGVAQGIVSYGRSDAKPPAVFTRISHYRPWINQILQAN
Procedure: Human heart chymase was purified according to the method of Urata et al. (J. Biol. Chem., 1990, 265, 22348). The inhibitory activity off the compound of the present invention was determined as follows. Purified enzyme was diluted with 0.1M tris HCl buffer (pH=7.5), 1M sodium chloride, and 0.01% Triton X-100 to obtain an enzyme solution having appropriate concentrations. Suc-Ala-Ala-Pro-Phe-MCA (Peptide Institute Inc.) was dissolved in 10 mM dimethyl sulfoxide (hereinafter referred to as DMSO) and diluted 20-fold with 0.1 M Tris-HCl buffer (pH 7.5) containing 1 M sodium chloride and 0.01% Triton X-100 to an appropriate concentration to prepare substrate solution.
5 μl of the test sample in DMSO was added to 75 μl of the enzyme solution and preincubated at 30° C. for 10 minutes. Then, 20 μl of the subs rate solution was added to the test sample-enzyme mixture, and incubated at 30° C. Ten minutes later, 50 μl of 30% acetic acid was added to stop the enzymatic reaction, and the amount of AMC formed was determined using a fluorophotometer. At the same time, 5 μl of DMSO in stead of the test sample was added and reacted simultaneously as a control. The inhibitory activity to human chymase was calculated based on the value of the control, and then the inhibition percentage and the 50% inhibition concentration (IC50) were determined.

pulmonary chymase = assay: Change in pulmonary chymase activity after intratracheal bleomycin; type: in vivo, mice; details: bleomycin 0.08 mg intratracheal, 2 weeks after administration
ICR mice = assay: Change in hydroxyproline content in lung after intratracheal bleomycin; type: in vivo; details: 2 weeks after administration
Procedure: (§1) Pulmonary fibrosis was induced by intratracheal administration of bleomycin (Nippon Kayaku) to 10 week old male ICR mice (Charles River Japan) under anesthesia (n=10). That is, bleomycin (0.04 mg or 0.08 mg) was suspended in 50 μl of saline and administered into the airways using a 100 μl syringe (made by Hamilton Co.) Two weeks after the administration of bleomycin, the lungs were excised and the amount of hydroxyproline, an indicator of tissue collagen, was assayed according to the method as described previously (Anal. Biochem. 19, 249, 1967). Further, the amount of hydroxyproline was expressed as an amount per lung. Further, mice similarly administered saline instead of bleomycin were used as a control (n=10).

[1] = tested on: bleomycin-induced pulmonary fibrosis in mice; assay: Bleomycin-induced pulmonary fibrosis model: effect of chymase inhibitor on lung hydroxyproline; type: in vivo, ICR mice; details: five days a week over 2 weeks, bleomycin 0.08 mg
Procedure: as §1
Pulmonary fibrosis was induced in accordance with the method described in Example 5 (n=10) and the amount of hydroxyproline in pulmonary tissue was assayed in the same way as in Example 5 in order to investigate the effect of a chymase inhibitor (Compound 34) on pulmonary fibrosis. Further, the chymase inhibitor was suspended in saline containing 0.5% hydroxypropyl cellulose (HPC/saline) and administered intraperitoneally at a dose of 10 mg/kg or 50 mg/kg once a day for five days a week over 2 weeks, starting immediately after the bleomycin administration. […]

Tsk mice = assay: Tsk mice, model for scleroderma: thickness of subcutaneous fibrous layer; type: in vivo; details: 50 mg/kg/day i.p. once a day for 2 weeks, 13-week old Tsk mice
Procedure: (§2) Collagen content, thickness of subcutaneous fibrous layer, mast cell number, chymase activity and chymase mRNA were measured in the skin of Tsk mice (Rheum. Dis. Clin. North Am. 16, 153, 1990), and compared with the control mice (pallid mice) at the ages of 5, 10, and 20 weeks (n=6). The collagen content was determined by measuring hydroxyproline, the marker for collagen, using HPLC, whereas fibrous layer thickness was determined by histological analysis with Azan staining followed by measuring the area of the fibrous layer using an image analysis system. The density of mast cells was calculated by counting the number of cells with stained granules by toluidine blue staining. Chymase was extracted from the skin according to the method described previously (Arch. Dermatol. Res. 290, 553, 1998), and the activity determined as described in Example 2. The mRNA for the skin chymase (MMCP-4) was measured only at 10 weeks of age by competitive RT-PCR method (Biotechniques 21, 268, 1996).
13-week old Tsk mice (n=5) were intra peritoneally administered a chymase inhibitor (Compound 18) in a dosage of 50 mg/kg/day once a day every day for 2 weeks. Five hours after the final administration, the degree of hypertrophy of the subcutaneous fibrous layer and the skin-chymase activity were measured and compared with the values of the group administered saline. […]

skin chymase = target: T2, skin chymase (Mus musculus, UniProt P21812); assay: Tsk mice, model for scleroderma: skin chymase activity; type: in vivo; details: 50 mg/kg/day i.p. once a day for 2 weeks, 13-week old Tsk mice, 5 hours after final administration
T2 construct: Chymase was extracted from the skin according to the method described previously; from tissue; host or cells: skin of Tsk mice
T2 sequence (P21812 21-246): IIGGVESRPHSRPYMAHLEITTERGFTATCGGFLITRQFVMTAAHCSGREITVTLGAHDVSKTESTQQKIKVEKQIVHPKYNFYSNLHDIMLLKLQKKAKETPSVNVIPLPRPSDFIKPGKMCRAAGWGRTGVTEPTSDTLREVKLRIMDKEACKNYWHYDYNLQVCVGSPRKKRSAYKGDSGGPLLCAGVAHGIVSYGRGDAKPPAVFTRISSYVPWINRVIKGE
Procedure: (§3) A chymase inhibitor (Compound 18) was administered intraperitoneally in ICR mice (8 weeks old, n=3). After 12 hours and 24 hours, the chymase was extracted from the small intestines, tongues, back skins, front legs, and rear legs of the mice and the enzymatic activity thereof was determined. The chymase was extracted using a 10 mM phosphate buffer including 2M KCl and 0.1% polyethylene octylphenyl ether (Triton X-100) from the tissues. Chymase activity was determined, by measuring the rate of hydrolysis of synthesized substrate Suc-Phe-Pro-Phe-p-nitroanilide. Saline was administered in 24 hours in control groups.
as §2, with “Chymase was extracted from the skin according to the method described previously (Arch. Dermatol. Res. 290, 553, 1998), and the activity determined as described in Example 2. The mRNA for the skin chymase (MMCP-4) was measured only at 10 weeks of age by competitive RT-PCR method (Biotechniques 21, 268, 1996).” left out

chymase = assay: Effects of chymase inhibitor on chymase activity in tissues of mice after intraperitoneal administration; type: in vivo; details: ICR mice, 12 and 24 hours after administration
Procedure: as §3

IC50 (Human heart chymase) [nM]	Compound	further results
140	Nc1ccccc1S(=O)(=O)n1c(=O)[nH]c2cc(Cl)ccc2c1=O [Compound 2, 3-(2-aminobenzenesulfonyl)-7-chloro-2.4(1H,3H)-quinazolinedione]	
4000	COc1ccc2c(=O)n(S(=O)(=O)c3ccc(C(=O)O)c(N)c3)c(=O)[nH]c2c1 [Compound 27, 4-[(7-methoxy-2,4(1H,3H)-quinazolinedion-3-yl)sulfonyl]anthranilic acid]	
360	O=c1[nH]c2cc(Cl)ccc2c(=O)n1S(=O)(=O)c1cccc(O)c1 [Compound 1, 7-chloro-3-(3-hydroxybenzenesulfonyl)-2,4(1H,3H)-quinazolinedione]	
35	Nc1cc(S(=O)(=O)n2c(=O)[nH]c3cc(Cl)ccc3c2=O)ccc1Cl [Compound 8, 3-(3-amino-4-chlorobenzenesulfonyl)-7-chloro-2,4(1H,3H)-quinazolinedione]	
840	O=C(O)c1ccc(S(=O)(=O)n2c(=O)[nH]c3cc(Cl)ccc3c2=O)cc1O [Compound 16, 4-[(7-chloro-2,4(1H,3H)-quinazolinedion-3-yl)sulfonyl]salicylic acid monosodium salt]	
1700	O=C(O)C1Oc2ccc(S(=O)(=O)n3c(=O)[nH]c4cc(Cl)ccc4c3=O)cc2NC1=O (racemic) [Compound 29, (±)-6-[(7-chloro-2,4(1H,3H)-quinazolinedion-3-yl)sulfonyl]-3-oxo-1,4-benzoxazine-2-carboxylic acid]	
1500	Nc1cc(S(=O)(=O)n2c(=O)[nH]c3ccc(Cl)cc3c2=O)ccc1C(=O)O [Compound 32, 4-[(6-chloro-2,4(1H,3H)-quinazolinedion-3-yl)sulfonyl]anthranilic acid]	
300	COc1ccc(S(=O)(=O)n2c(=O)[nH]c3cc(Cl)ccc3c2=O)cc1NC(C)=O [Compound 22]	
	bleomycin	pulmonary chymase activity relative to the group administered saline (pulmonary chymase): about 4.5 times; hydroxyproline content in the lung as compared with the saline group (ICR mice; bleomycin 0.04 mg/mouse intratracheal): 1.15 fold; hydroxyproline content in the lung as compared with the saline group (ICR mice; bleomycin 0.08 mg/mouse intratracheal): 1.25 fold
300	CC(C(=O)O)C(=O)Nc1cccc(S(=O)(=O)n2c(=O)[nH]c3cc(Cl)ccc3c2=O)c1 (stereo not shown) [Compound 13, 2-{3-[(7-chloro-2,4(1H,3H)-quinazolinedion-3-yl)sulfonyl]phenylaminocarbonyl}propionic acid]	
440	Nc1cccc(S(=O)(=O)n2c(=O)[nH]c3cc(Cl)ccc3c2=O)c1 [Compound 12, 3-(3-aminobenzenesulfonyl)-7-chloro-2,4(1H,3H)-quinazolinedione]	
320	COc1ccc(S(=O)(=O)n2c(=O)[nH]c3cc(Cl)ccc3c2=O)cc1NS(C)(=O)=O [Compound 24, 7-chloro-3-(4-methoxy-3-methylsulfonylaminobenzenesulfonyl)-2,4(1H,3H)-quinazolinedione]	
360	CS(=O)(=O)O.Nc1cccc(S(=O)(=O)n2c(=O)[nH]c3cc(Cl)ccc3c2=O)c1 [Compound 34, 3-(3-aminobenzenesulfonyl)-7-chloro-2,4-(1H,3H)quinazolinedion methanesulfonic acid salt]	effect on the increase of the amount of hydroxyproline in the lung ([1]; 10 mg/kg i.p. once a day): little effect; rate of suppression of the increase of the amount of hydroxyproline in the lung ([1]; 50 mg/kg i.p. once a day): about 46%
140	Nc1cc(S(=O)(=O)n2c(=O)[nH]c3cc(Cl)ccc3c2=O)ccc1C(=O)[O-].[Na+] [Compound 18, 4-[(7-chloro-2,4(1H,3H)-quinazolinedion-3-yl)sulfonyl]anthranilic acid monosodium salt]	thickness of the subcutaneous fibrous layer, % of that for the group administered saline (Tsk mice): about 60%; skin chymase activity, % of that of the group administered saline (skin chymase): 57%; inhibition of chymase activity in the intestines compared with the group administered saline (chymase; small intestines): approximately 80%; inhibition of chymase activity in the tongue, back skin, and legs (chymase; tongue, back skin, legs): about 50%
340	O=C(O)c1cc(S(=O)(=O)n2c(=O)[nH]c3cc(Cl)ccc3c2=O)ccc1O [Compound 21, 5-[(7-chloro-2,4(1H,3H)-quinazolinedion-3-yl)sulfonyl]salicylic acid]	
140	Nc1cc(S(=O)(=O)n2c(=O)[nH]c3cc(Cl)ccc3c2=O)ccc1C(=O)O [Compound 17, 4-[(7-chloro-2,4(1H,3H)-quinazolinedion-3-yl)sulfonyl]anthranilic acid]	
170	Cc1ccc(S(=O)(=O)n2c(=O)[nH]c3cc(Cl)ccc3c2=O)cc1N [Compound 10, 3-(3-amino-4-methylbenzenesulfonyl)-7-chloro-2,4(1H,3H)-quinazolinedione]	
